For experiment [1], the system named is DOCA-salt-induced organ damage. The settings on record: rats; by blocking the activation of TH17 cells; cited from earlier work.
The next experiment deals with prostate cancer. The settings on record: cited from earlier work.
Experiment [2] concerns AR. The settings on record: read-out: IC50 in AR competitive binding assay; cited from earlier work.
Experiment [3] concerns AR. To be noted: read-out: IC50 in AR transcriptional assay; cited from earlier work.
A further experiment concerns the target sigma 1 receptor. The settings on record: cited from earlier work.
Another experiment has as its target T1, RORγt-LBD (262-518) (Homo sapiens, UniProt P51449).
T1 sequence (P51449 262-518): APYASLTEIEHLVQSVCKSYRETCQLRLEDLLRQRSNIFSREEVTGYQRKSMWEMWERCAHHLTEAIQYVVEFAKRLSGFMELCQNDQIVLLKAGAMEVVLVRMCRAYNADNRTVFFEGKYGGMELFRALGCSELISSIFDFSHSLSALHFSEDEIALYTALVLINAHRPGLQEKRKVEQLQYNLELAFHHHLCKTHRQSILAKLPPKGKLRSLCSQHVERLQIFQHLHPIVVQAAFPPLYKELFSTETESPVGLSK
The format is biochemical.

The target in experiment [4] is T2, RORγt-LBD (Homo sapiens, UniProt P51449).
T2 sequence (P51449 262-518): T1 sequence (P51449 262-518)
The experiment in a line: Intrinsic fluorescence-quenching based assay. It counts as binding. The settings on record: RORγt-LBD 30 μM; compound 0-50 μM; excitation 280 nm.

The target in experiment [5] is T2, RORγt-LBD. The experiment in a line: Isothermal titration calorimetry. The format is binding. On the technique in general: In ITC the heat of successive injections is recorded.
The target of experiment [6] is T3, RORγt-LBD-SRC2.2 (Homo sapiens, UniProt P51449).
T3 sequence (P51449 with tags, fused parts or gaps): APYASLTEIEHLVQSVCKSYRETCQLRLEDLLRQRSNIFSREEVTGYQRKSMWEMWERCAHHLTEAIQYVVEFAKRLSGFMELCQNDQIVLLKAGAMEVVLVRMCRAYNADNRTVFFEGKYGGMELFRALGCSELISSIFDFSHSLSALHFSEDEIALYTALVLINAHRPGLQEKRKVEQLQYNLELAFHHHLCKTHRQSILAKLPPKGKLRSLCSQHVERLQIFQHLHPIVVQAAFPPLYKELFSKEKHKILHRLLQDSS
The experiment in a line: Drug affinity responsive target stability. It counts as binding. The settings on record: 60 μM protein, 40 °C, 10 min, dose-dependent.

Another experiment concerns the target T4, RORγt in HEK293T cells (Homo sapiens, UniProt P51449).
T4 sequence (P51449 1-497 isoform P51449-2): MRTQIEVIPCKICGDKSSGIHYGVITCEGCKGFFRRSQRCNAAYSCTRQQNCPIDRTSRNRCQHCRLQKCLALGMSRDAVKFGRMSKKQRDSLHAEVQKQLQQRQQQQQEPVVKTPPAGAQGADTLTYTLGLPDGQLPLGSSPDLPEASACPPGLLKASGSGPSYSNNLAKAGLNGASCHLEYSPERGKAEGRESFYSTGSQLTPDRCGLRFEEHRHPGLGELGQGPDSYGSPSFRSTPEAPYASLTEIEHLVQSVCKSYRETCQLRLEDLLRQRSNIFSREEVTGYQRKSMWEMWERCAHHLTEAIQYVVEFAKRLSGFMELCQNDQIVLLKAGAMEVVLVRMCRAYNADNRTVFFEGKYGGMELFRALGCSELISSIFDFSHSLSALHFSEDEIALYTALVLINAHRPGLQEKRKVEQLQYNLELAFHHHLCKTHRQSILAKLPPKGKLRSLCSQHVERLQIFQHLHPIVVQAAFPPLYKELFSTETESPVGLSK
The experiment is described as follows: Cellular thermal shift assay. The format is cell-based. The settings on record: HEK293T cells exogenously expressing RORγt, 60 μM, 2 h.

The test system of experiment [7] is experimental autoimmune encephalomyelitis (EAE). The experiment is described as follows: MOG35-55-induced EAE: clinical signs, disease onset, body weight. The format is in vivo, female C57BL/6 mice. To be noted: EAE mice; for EAE induced body weight loss: 50 mg kg^−1 orally every day from day 12; for mean disease onset date: 50 mg kg^−1 orally every day from day 12, n = 8.

For a further experiment, the system named is TH17 cells. The experiment is described as follows: Flow cytometry of spleen cells of EAE mice. It counts as in vivo. To be noted: CD4 and IL-17 dual-staining. (In general: A flow cytometer gives signals particle by particle.)
Experiment [8] concerns blood–brain barrier (BBB). The experiment is described as follows: In vivo imaging of brain inflammation. The settings on record: EAE mice, day 9 post-administration.
The subject of the next experiment is IL-17A. The experiment in a line: ELISA of IL-17A in spinal cord and brain supernatant. The format is in vivo. To be noted: EAE mice. (In an ELISA, binding on a coated surface is turned into a signal by an enzyme label.)
Another experiment concerns spinal cord white matter. The experiment in a line: Histochemical analysis of spinal cords. It counts as in vivo. The settings on record: EAE mice, 50 mg kg^−1 orally, LFB and H&E staining.
A further experiment has as its target 5-lipoxygenase. To be noted: read-out: IC50, 5-lipoxygenase; cited from earlier work.
In the next experiment the target is T5, human RORγt (Homo sapiens, UniProt P51449).
T5 sequence (P51449 97-516): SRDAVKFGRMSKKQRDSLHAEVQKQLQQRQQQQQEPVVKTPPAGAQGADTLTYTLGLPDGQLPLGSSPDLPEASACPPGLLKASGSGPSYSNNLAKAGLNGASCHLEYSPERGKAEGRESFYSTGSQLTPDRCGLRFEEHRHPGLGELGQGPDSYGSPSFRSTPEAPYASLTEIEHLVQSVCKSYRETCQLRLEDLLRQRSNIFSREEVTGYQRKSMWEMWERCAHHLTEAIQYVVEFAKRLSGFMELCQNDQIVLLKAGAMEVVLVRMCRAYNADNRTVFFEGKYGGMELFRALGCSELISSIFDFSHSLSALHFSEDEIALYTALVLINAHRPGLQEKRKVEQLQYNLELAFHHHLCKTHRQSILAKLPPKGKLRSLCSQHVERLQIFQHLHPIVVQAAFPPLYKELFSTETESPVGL
The experiment in a line: RORγt-GAL4 dual-luciferase reporter assay. It counts as cell-based.

Experiment [9] concerns the target T3, RORγt-LBD-SRC2.2. The experiment is described as follows: Co-crystallization and X-ray structure determination. To be noted: resolution 1.99 Å.

Structures are written as SMILES. Read-outs that look alike come from different tables or passages of the source.

As for `CC(=O)S[C@@H]1CC2=CC(=O)CC[C@]2(C)[C@H]2CC[C@@]3(C)[C@@H](CC[C@@]34CCC(=O)O4)[C@H]12` [Spironolactone], the “effect on DOCA-salt-induced organ damage” value in [1] was “decrease DOCA-salt-induced organ damage”. Also, the “effect on the incidence of prostate cancer” value in the experiment with prostate cancer was “reduce the incidence of prostate cancer”.

`C[C@]12CC[C@H](O)CC1=CC[C@@H]1[C@@H]2CC[C@]2(C)C(c3cccnc3)=CC[C@@H]12` [abiraterone, Abiraterone]: the values for the IC50 in the experiment with AR [2] and in the experiment on AR [3] were 7600 nM and 9400 nM, respectively.

Regarding `CCN(CC)CCCC(C)Nc1ccnc2cc(Cl)ccc12` (centres unmarked) [chloroquine], the “pKi, sigma 1 receptor” value at sigma 1 receptor is listed as 7.1.

Regarding `CCN(CCO)CCCC(C)Nc1ccnc2cc(Cl)ccc12` (centres unmarked) [hydroxychloroquine], the “pKi, sigma 1 receptor” value on sigma 1 receptor is recorded as 6.9.

At RORγt-LBD (262-518), `CC1(C)CC[C@]2(C(=O)O)CC[C@]3(C)C(=CC[C@@H]4[C@@]5(C)CCC(=O)C(C)(C)[C@@H]5CC[C@]43C)[C@@H]2C1` [oleanonic acid, Oleanonic Acid] registered an IC50 of 280 nM. Also, the “fluorescence quenching of RORγt-LBD” value at RORγt-LBD [4] is given as “dose-dependently induced fluorescence quenching”. Also, the Kd on RORγt-LBD [5] was 1060 nM. The “proteolysis of RORγt-LBD-SRC2.2 by pronase E” value on RORγt-LBD-SRC2.2 [6] is listed as “clearly decreased”. Besides, the “Tm values of RORγt (CETSA)” value at RORγt in HEK293T cells is “significantly increased”. Besides, in experiment [7], the “EAE induced body weight loss” value is “significantly reversed” and the “mean disease onset date” value is recorded as 15.3 ± 0.2 days. For the same molecule, the “frequency of pro-inflammatory TH17 cells in the spleen” value with TH17 cells is recorded as “reduced frequency”. Further, in experiment [8], the “EAE-induced BBB disruption (brain BSA-Cy5.5 accumulation)” value is listed as “remitted the EAE-induced BBB disruption obviously”. In addition, the “IL-17A protein expression in brains and spinal cords” value in the experiment with IL-17A is “effectively reduced”. Further, in the experiment on spinal cord white matter, the “immune cell infiltrations in white matter of spinal cords” value is given as “reduced”.

With `Oc1cc(O)cc(/C=C/c2ccc(O)c(O)c2)c1` [piceatannol], the IC50 at 5-lipoxygenase was 240 nM.

With `Oc1ccc(/C=C/c2cc(O)cc(O)c2)cc1` [resveratrol], at 5-lipoxygenase, the half-inhibitory concentration (IC50) was 4900 nM.

Molecule `C[C@H]1[C@H](C)CC[C@]2(C(=O)O)CC[C@]3(C)C(=CC[C@@H]4[C@@]5(C)CCC(=O)C(C)(C)[C@@H]5CC[C@]43C)[C@H]12` [ursonic acid, Ursonic Acid] registered an IC50 against human RORγt of 100 nM. At RORγt-LBD (262-518), this molecule had an IC50 of 10 nM. Also, the “fluorescence quenching of RORγt-LBD” value at RORγt-LBD [4] is recorded as “dose-dependently induced fluorescence quenching”. In addition, the Kd at RORγt-LBD [5] is 3040 nM. Moreover, the “proteolysis of RORγt-LBD-SRC2.2 by pronase E” value on RORγt-LBD-SRC2.2 [6] is given as “clearly decreased”. Also, the “Tm values of RORγt (CETSA)” value at RORγt in HEK293T cells is given as “significantly increased”. Besides, at RORγt-LBD-SRC2.2 [9], the “binding site in the crystal structure (PDB code: 6J3N)” value was “buried in the canonical orthosteric ligand pocket”. In experiment [7], the “EAE induced body weight loss” value is reported as “significantly reversed” and the “mean disease onset date” value is on record as 17.3 ± 0.5 days. Moreover, in the experiment on TH17 cells, the “frequency of pro-inflammatory TH17 cells in the spleen” value is listed as “reduced frequency”. For the same molecule, the “EAE-induced BBB disruption (brain BSA-Cy5.5 accumulation)” value in [8] is reported as “remitted the EAE-induced BBB disruption obviously”. Further, in the experiment on IL-17A, the “IL-17A protein expression in brains and spinal cords” value was “effectively reduced”. Besides, the “immune cell infiltrations in white matter of spinal cords” value in the experiment with spinal cord white matter is “reduced”.

Broadly, the IC50 is the concentration at which inhibition is half-maximal. In general, Kd refers to a measure of binding affinity in units of concentration. Low values mean a tighter complex, high ones a looser complex.
